Reference: patent US4016159A, “Acylamino-cephem-carboxylic acids containing an amidino or guanidino group in the molecule” (Hoechst Aktiengesellschaft, priority 1973, dated 1977)
Values after ≈ are worked out from the molar mass of the structure shown. Read-outs that look alike come from different tables or passages of the source.

Tests used:
Format in all cases: cell-based
[1] = test system: Staphylococcus aureus 285; assay: Minimum inhibition concentration (MIC), Table 1; details: for Minimum inhibition concentration (MIC): Germ: Staphylococcus aureus 285
Description: (§1) Minimum inhibition concentration (MIC) in γ/ml
Germ: Staphylococcus aureus 285

[2] = test system: Streptococcus pyogenes A; assay: Minimum inhibition concentration (MIC), Table 3; details: Germ: Streptococcus pyogenes A; for MIC: read-out: Minimum inhibition concentration MIC
Description: Minimum inhibition concentration MIC in γ/ml
Germ: Streptococcus pyogenes A

[3] = test system: Streptococcus D; assay: Minimum inhibition concentration (MIC), Table 4; details: Germ: Streptococcus D; for MIC: Streptococcus, read-out: Minimum inhibition concentration (MIC)
Description: as §1

[4] = Staphylococcus aureus, 285, Germ: Staphylococcus aureus 285, read-out: Minimum inhibition concentration (MIC)
[5] = Staphylococcus aureus, 285, read-out: Minimum inhibition concentration (MIC)

Compound | MIC [1, 4] | MIC [2] | MIC [3] | other results
Cn1nnnc1SCC1=C(C(=O)O)N2C(=O)C(NC(=O)Cc3ccc(C4=NCCCN4)cc3)C2SC1 (stereo not shown) [Example 87, 3-[(1-methyl-1H-tetrazole-5-yl)-thiomethyl]-7-[4-(1,4,5,6-tetrahydropyrimide-2-yl)-phenylacetamido]-Δ 3-cephem-4-carboxylic acid] | 1.6 to 2.5 µg/mL (≈ 3.03 to 4.73 µM) |  |  | 
CCCCc1nnc(SCC2=C(C(=O)O)N3C(=O)C(NC(=O)Cc4ccc(C5=NCCCN5)cc4)C3SC2)s1 (stereo not shown) [Example 77, 3-[(5-n-butyl-1,3,4-thiadiazole-2-yl)-thiomethyl]-7-[4-(1,4,5,6-tetrahydropyrimide-2-yl)-phenylacetamido]-Δ 3-cephem-4-carboxylic acid] | 0.5 to 1.25 µg/mL (≈ 0.852 to 2.13 µM) | 0.008 to 0.0156 µg/mL (≈ 0.0136 to 0.0266 µM) |  | 
Cc1nnc(SCC2=C(C(=O)O)N3C(=O)C(NC(=O)Cc4ccc(C(=N)N)cc4)C3SC2)s1 (stereo not shown) [Example 45, 3-[(5-methyl-1,3,4-thiadiazole-2-yl)-thiomethyl]-7-(4-amidinophenylacetamido)-Δ 3-cephem-4-carboxylic acid] | 0.156 to 0.391 µg/mL (≈ 0.309 to 0.775 µM) | 0.000391 to 0.0078 µg/mL (≈ 0.000775 to 0.0155 µM) |  | 
N=C(N)c1ccc(CC(=O)NC2C(=O)N3C(C(=O)O)=C(CSc4nnc(N)s4)CSC23)cc1 (stereo not shown) [Example 59, 3-[(5-amino-1,3,4-thiadiazole-2-yl)-thiomethyl]-7-(4-amidinophenylacetamido)-Δ 3-cephem-4-carboxlic acid] | 0.5 to 1.25 µg/mL (≈ 0.989 to 2.47 µM) | 0.000391 to 0.0078 µg/mL (≈ 0.000773 to 0.0154 µM) | 10 to 50 µg/mL (≈ 19.8 to 98.9 µM) | 
Cn1nnnc1SCC1=C(C(=O)O)N2C(=O)C(NC(=O)COc3ccc(C4=NCCCN4)cc3)C2SC1 (stereo not shown) [Example 93, 3-[(1-methyl-1-H-tetrazol-5-yl)-thiomethyl]-7-[4-(1,4,5,6-tetrahydropyrimide-2-yl)-phenoxyacetamido-]-Δ3-cephem-4-carboxylic acid] |  |  | 10 to 50 µg/mL (≈ 18.4 to 91.8 µM) | 
Cc1ccnc(SCC2=C(C(=O)O)N3C(=O)C(NC(=O)Cc4ccc(C5=NCCCN5)cc4)C3SC2)n1 (stereo not shown) [Example 102, 3-[(4-methyl-pyrimide-2-yl)-thiomethyl]-7-[4-(1,4,5,6-tetrahydropyrimide-2-yl)-phenylacetamido]-Δ3-cephem-4-carboxylic acid] | 1.6 to 2.5 µg/mL (≈ 2.97 to 4.64 µM) | 0.008 to 0.0156 µg/mL (≈ 0.0149 to 0.029 µM) | 10 to 50 µg/mL (≈ 18.6 to 92.8 µM) | 
3-[(5-methyl-1,3,4-thiadiazole-2-yl)-thiomethyl]-7-[4-(imidazoline-2-yl)-2-methoxyphenoxy-acetamido]-Δ3-cephem-4-carboxylic acid [Example 126] |  |  |  | Minimum inhibition concentration (MIC) [3]: 10 to 50 µg/mL; Minimum inhibition concentration (MIC) [2]: 0.008 to 0.0156 µg/mL; Minimum inhibition concentration (MIC) [1]: 0.5 to 1.25 µg/mL
CC1(C)S[C@@H]2[C@H](NC(=O)Cc3ccccc3)C(=O)N2[C@H]1C(=O)O [Penicillin-G-Na, reference compound] |  |  |  | MIC [1, 5]: 125 µg/mL (≈ 374 µM)
Cc1nnc(SCC2=C(C(=O)O)N3C(=O)C(NC(=O)Cc4ccc(C5=NCCCN5)cc4)C3SC2)o1 (stereo not shown) [Example 78, 3-[(5-methyl-1,3,4-oxadiazole-2-yl)-thiomethyl]-[4-(1,4,5,6-tetrahydropyrimide-2-yl)-phenylacetamido]-Δ 3-cephem-4-carboxylic acid] | 0.5 to 1.25 µg/mL (≈ 0.946 to 2.36 µM) | 0.008 to 0.0156 µg/mL (≈ 0.0151 to 0.0295 µM) |  | 
CCCc1nnc(SCC2=C(C(=O)O)N3C(=O)C(NC(=O)COc4ccc(C5=NCCN5)cc4)C3SC2)o1 (stereo not shown) [Example 41, 3-[(5-n-propyl-1,3,4-oxadiazole-2-yl)-thiomethyl]-7-[4-(imidazoline-2-yl)-phenoxyacetamido]-Δ 3-cephem-4-carboxylic acid] | 0.5 to 1.25 µg/mL (≈ 0.895 to 2.24 µM) | 0.000391 to 0.0078 µg/mL (≈ 0.0007 to 0.014 µM) | 10 to 50 µg/mL (≈ 17.9 to 89.5 µM) | 
O=C(Cc1ccc(C2=NCCCN2)cc1)NC1C(=O)N2C(C(=O)O)=C(CSc3nnc(-c4ccccc4)o3)CSC12 (stereo not shown) [Example 83, 3-[(5-phenyl-1,3,4-oxadiazole-2-yl)-thiomethyl]-7-[4-(1,4,5,6-tetrahydropyrimide-2-yl)-phenylacetamido]-Δ 3-cephem-4-carboxylic acid] |  | 0.000391 to 0.0078 µg/mL (≈ 0.000662 to 0.0132 µM) | 10 to 50 µg/mL (≈ 16.9 to 84.6 µM) | Minimum inhibition concentration (MIC) [1]: 0.5 to 1.25 µg/mL
CCc1csc(SCC2=C(C(=O)O)N3C(=O)C(NC(=O)Cc4ccc(C5=NCCN5)cc4)C3SC2)n1 (stereo not shown) [Example 115, 3-[(4-ethyl-thiazole-2-yl)-thiomethyl]-7-[4-(imidazoline-2-yl)-phenylacetamido]-Δ3-cephem-4-carboxylic acid] | 1.6 to 2.5 µg/mL (≈ 2.94 to 4.6 µM) | 0.000391 to 0.0078 µg/mL (≈ 0.000719 to 0.0143 µM) | 10 to 50 µg/mL (≈ 18.4 to 92 µM) | 
COc1cc(C(=N)N)ccc1OCC(=O)NC1C(=O)N2C(C(=O)O)=C(CSc3nc(C)cs3)CSC12 (stereo not shown) [Example 130, 3-[(4-methyl-1,3-thiazole-2-yl)-thiomethyl]-7-(4-amidino-2-methoxy-phenoxyacetamido)-Δ3-cephem-4-carboxylic acid] | 0.156 to 0.391 µg/mL (≈ 0.284 to 0.711 µM) | 0.008 to 0.0156 µg/mL (≈ 0.0146 to 0.0284 µM) |  | 
CCCCc1nnc(SCC2=C(C(=O)O)N3C(=O)C(NC(=O)COc4ccc(C(=N)N)cc4)C3SC2)s1 (stereo not shown) [Example 67, 3-[(5-n-butyl-1,3,4-thiadiazole-2-yl)-thiomethyl]-7-(4-amidinophenoxyacetamido)-Δ 3-cephem-4-carboxylic acid] | 0.5 to 1.25 µg/mL (≈ 0.889 to 2.22 µM) |  |  | 
N=C(N)c1ccc(OCC(=O)NC2C(=O)N3C(C(=O)O)=C(CSc4nnc(-c5ccccc5)o4)CSC23)cc1 (stereo not shown) [Example 48, 3-[(5-phenyl-1,3,4-oxadiazole-2-yl)-thiomethyl]-7-(4-amidinophenoxyacetamido)-Δ 3-cephem-4-carboxylic acid] | 0.156 to 0.391 µg/mL (≈ 0.275 to 0.69 µM) |  |  | Minimum inhibition concentration (MIC) [3]: 0.196 to 6.25 µg/mL
Cn1ccnc1SCC1=C(C(=O)O)N2C(=O)C(NC(=O)Cc3ccc(C4=NCCN4)cc3)C2SC1 (stereo not shown) [Example 123, 3-[(1-methylimidazole-2-yl)-thiomethyl]-7-[4-(imidazoline-2-yl)-phenylacetamido]-Δ 3-cephem-4-carboxylic acid] | 1.6 to 2.5 µg/mL (≈ 3.12 to 4.88 µM) |  |  | 
CCc1nnc(SCC2=C(C(=O)O)N3C(=O)C(NC(=O)Cc4ccc(C5=NCCCN5)cc4)C3SC2)[nH]1 (stereo not shown) [Example 95, 3-[(5-ethyl-triazole-2-yl)-thiomethyl]-7-[4-(1,4,5,6-tetrahydro-pyrimide-2-yl)-phenylacetamido]-Δ3-cephem-4-carboxylic acid] |  |  |  | Minimum inhibition concentration (MIC) [3]: 10 to 50 µg/mL; Minimum inhibition concentration (MIC) [2]: 0.008 to 0.0156 µg/mL; Minimum inhibition concentration (MIC) [1]: 1.6 to 2.5 µg/mL
Cc1csc(SCC2=C(C(=O)O)N3C(=O)C(NC(=O)Cc4ccc(NC(=N)N)cc4)C3SC2)n1 (stereo not shown) [Example 7] | 0.5 to 1.25 µg/mL (≈ 0.964 to 2.41 µM) |  | 10 to 50 µg/mL (≈ 19.3 to 96.4 µM) | 
N=C(N)c1ccc(CC(=O)NC2C(=O)N3C(C(=O)O)=C(CSC4=NCCS4)CSC23)cc1 (stereo not shown) [Example 90, 3-[2-thiazoline-2-yl-thiomethyl]-7-[4-amidino-phenylacetamido]-Δ 3-cephem-4-carboxylic acid] | 0.156 to 0.391 µg/mL (≈ 0.317 to 0.795 µM) | 0.000391 to 0.0078 µg/mL (≈ 0.000795 to 0.0159 µM) |  | 
Cc1nnc(SCC2=C(C(=O)O)N3C(=O)[C@@H](NC(=O)Cn4cnnn4)[C@H]3SC2)s1 [Cephazolin, reference compound] |  |  | 100 µg/mL (≈ 220 µM) | 
CCc1nnc(SCC2=C(C(=O)O)N3C(=O)C(NC(=O)Cc4ccc(C5=NCCCN5)cc4)C3SC2)n1N (stereo not shown) [Example 104, 3-[(4-amino-5-ethyl-1,2,4-triazole-3-yl)-thiomethyl]-7-[4-(1,4,5,6-tetrahydropyrimide-2-yl)-phenylacetamido-] -Δ3-cephem-4-carboxylic acid] | 1.6 to 2.5 µg/mL (≈ 2.87 to 4.49 µM) |  |  | 
CCCCc1nnc(SCC2=C(C(=O)O)N3C(=O)C(NC(=O)COc4ccc(C(=N)N)cc4)C3SC2)o1 (stereo not shown) [Example 66, 3-[(5-n-butyl-1,3,4-oxadiazole-2-yl)-thiomethyl]-7-(4-amidinophenoxyacetamido)-Δ 3-cephem-4-carboxylic acid] | 0.5 to 1.25 µg/mL (≈ 0.915 to 2.29 µM) | 0.008 to 0.0156 µg/mL (≈ 0.0146 to 0.0285 µM) |  | 
COc1cc(C(=N)N)ccc1OCC(=O)NC1C(=O)N2C(C(=O)O)=C(CSc3nccs3)CSC12 (stereo not shown) [Example 129, 3-[(1,3-thiazole-2-yl)thiomethyl]-7-(4-amidino-2-methoxy-phenoxyacetamido)-Δ3-cephem-4-carboxylic acid] | 0.156 to 0.391 µg/mL (≈ 0.291 to 0.73 µM) | 0.008 to 0.0156 µg/mL (≈ 0.0149 to 0.0291 µM) |  | 
CCCc1nnc(SCC2=C(C(=O)O)N3C(=O)C(NC(=O)COc4ccc(C(=N)N)cc4)C3SC2)o1 (stereo not shown) [Example 40, 3-[(5-n-propyl-1,3,4-oxadiazole-2-yl)-thiomethyl]-7-(4-amidinophenoxyacetamido)-Δ 3-cephem-4-carboxylic acid] | 0.156 to 0.391 µg/mL (≈ 0.293 to 0.734 µM) | 0.008 to 0.0156 µg/mL (≈ 0.015 to 0.0293 µM) |  | 
Cc1nnc(SCC2=C(C(=O)O)N3C(=O)C(NC(=O)COc4ccc(C5=NCCN5)cc4)C3SC2)o1 (stereo not shown) [Example 74, 3-[(5-methyl-1,3,4-oxadiazole-2-yl)-thiomethyl]-7-[4-(imidazoline-2-yl)-phenoxyacetamido]-Δ 3-cephem-4-carboxylic acid] | 0.5 to 1.25 µg/mL (≈ 0.942 to 2.36 µM) | 0.008 to 0.0156 µg/mL (≈ 0.0151 to 0.0294 µM) |  | 
CC1(C)S[C@@H]2[C@H](NC(=O)[C@H](N)c3ccccc3)C(=O)N2[C@H]1C(=O)O [Ampicillin, reference compound] | 100 µg/mL (≈ 286 µM) |  |  | 
CC1(C)S[C@@H]2[C@H](NC(=O)COc3ccccc3)C(=O)N2[C@H]1C(=O)O [Penicillin-V-K, reference compound] |  |  |  | MIC [1, 5]: 125 µg/mL (≈ 357 µM)
Cc1nnc(SCC2=C(C(=O)O)N3C(=O)C(NC(=O)COc4ccc(C5=NCCCN5)cc4)C3SC2)o1 (stereo not shown) [Example 76, 3-[(5-methyl-1,3,4-oxadiazole-2-yl)-thiomethyl]-7-[4-(1,4,5,6-tetrahydropyrimide-2-yl)-phenoxy-acetamido]-Δ 3-cephem-4-carboxylic acid] | 0.5 to 1.25 µg/mL (≈ 0.918 to 2.3 µM) |  | 10 to 50 µg/mL (≈ 18.4 to 91.8 µM) | 
Cc1n[nH]c(SCC2=C(C(=O)O)N3C(=O)C(NC(=O)Cc4ccc(C5=NCCCN5)cc4)C3SC2)n1 (stereo not shown) [Example 17, 3-[(methyl-1,2,4,-triazole-3-yl)-thiomethyl]-7-[4-(1,4,5,6-tetrahydropyrimide-2-yl)-phenylacetamido]-Δ 3-cephem-4-carboxylic acid] | 1.6 to 2.5 µg/mL (≈ 3.03 to 4.74 µM) |  | 10 to 50 µg/mL (≈ 19 to 94.8 µM) | 
Cc1csc(SCC2=C(C(=O)O)N3C(=O)C(NC(=O)Cc4ccc(C5=NCCCN5)cc4)C3SC2)n1 (stereo not shown) [Example 15, 3-[(4-methyl-thiazole-2-yl)-thiomethyl]-7-[4-(1,4,5,6-tetrahydropyrimide-2-yl)-phenylacetamido]-Δ 3-cephem-4-carboxylic acid] | 1.6 to 2.5 µg/mL (≈ 2.94 to 4.6 µM) |  | 10 to 50 µg/mL (≈ 18.4 to 92 µM) | 
